These are literature values, as cited in patent US20220289705A1, “PROCESS FOR THE PREPARATION OF RIDINILAZOLE AND CRYSTALLINE FORMS THEREOF” (Summit (Oxford) Limited, priority 2019, published 2022).

In this data set the test system is Clostridioides difficile. Conditions: Phase 2 clinical trial; CDI recurrence.

In the case of `c1cc(-c2nc3cc(-c4ccc5[nH]c(-c6ccncc6)nc5c4)ccc3[nH]2)ccn1` [ridinilazole, 2,2′-di(pyridin-4-yl)-1H,1′H-5,5′-bibenzo[d]imidazole], the “rates of recurrent disease” value is 14.3%.
Consider `CN[C@H](CC(C)C)C(=O)N[C@H]1C(=O)N[C@@H](CC(N)=O)C(=O)N[C@H]2C(=O)N[C@H]3C(=O)N[C@H](C(=O)N[C@H](C(=O)O)c4cc(O)cc(O)c4-c4cc3ccc4O)[C@H](O)c3ccc(c(Cl)c3)Oc3cc2cc(c3O[C@@H]2O[C@H](CO)[C@@H](O)[C@H](O)[C@H]2O[C@H]2C[C@](C)(N)[C@H](O)[C@H](C)O2)Oc2ccc(cc2Cl)[C@H]1O` [vancomycin], for which the “rates of recurrent disease” value is on record as 34.8%.
